Results published in ChEMBL document CHEMBL4130359, “Indazole-based ligands for estrogen-related receptor α as potential anti-diabetic agents” (Eur J Med Chem, 2017).

Tests used:
[1] = system: Rattus norvegicus; assay: Toxicity in Zucker rat sub-chronic fa/fa prediabetic model assessed as serum cholesterol level at 10 mg/kg, po qd for 31 days measured on day 32 (reference value: 295 +/- 91 mg/dl); assay type: organism-based; conditions: in vivo, 744 h
[2] = system: Rattus norvegicus; assay: Effect on ATP5F1 gene expression in epididymal white adipose tissue of Zucker rat sub-chronic fa/fa prediabetic model at 10 mg/kg, po qd for 15 days by microarray analysis relative to control; assay type: functional
[3] = AUC (0 to 24 hrs) in Zucker rat sub-chronic fa/fa prediabetic model at 50 mg/kg, po qd for 26 days measured on day 26 post last dose; assay type: ADME, organism-based; set-up: dose 50 mg/kg, time < 24 hr, route oral; conditions: in vivo
[4] = system: Rattus norvegicus; assay: Toxicity in […] model assessed as serum creatinine level at 10 mg/kg, po qd for 31 days measured on day 32 (reference value: 0.55 +/- 0.018 mg/dl); assay type: organism-based; conditions: in vivo, 744 h
[5] = system: Rattus norvegicus; assay: Toxicity in […] chronic ob/ob model assessed as epididymal white adipose tissue weight at 3 mg/kg, po qd for 31 days measured on day 32 (reference value: 3.92 +/- 0.14 g); assay type: organism-based; conditions: in vivo, 744 h
[6] = molecular target: Retinoic acid receptor RXR-beta (Homo sapiens, UniProt P28702); assay: Antagonist activity at recombinant GST-tagged human RXRbeta LBD assessed as inhibition of all-trans-retinoic acid-induced fluorescein-labeled coactivator peptide recruitment preincubated with enzyme followed by coactivator addition by LanthaScreen TR-FRET assay
[7] = system: Rattus norvegicus; assay: Effect on ACOT4 gene expression in epididymal white adipose tissue of Zucker rat sub-chronic fa/fa prediabetic model at 10 mg/kg, po qd for 15 days by microarray analysis relative to control; assay type: functional
[8] = system: Rattus norvegicus; assay: Antidiabetic activity in […] chronic ob/ob model assessed as increase in plasma adiponectin level at 3 mg/kg, po qd for 31 days measured on day 32 by ELISA relative to control; assay type: functional
[9] = Clearance in Sprague-Dawley rat at 2 mg/kg, iv by LC-MS analysis; assay type: ADME, organism-based; conditions: in vivo
[10] = system: Rattus norvegicus; assay: Toxicity in Zucker rat sub-chronic fa/fa prediabetic model assessed as brown adipose tissue weight at 1 mg/kg, po qd for 31 days measured on day 32 (reference value: 2.1 +/- 0.3 g); assay type: organism-based; conditions: in vivo, 744 h
[11] = system: Rattus norvegicus; assay: Effect on NDUFS4 gene expression in epididymal white adipose tissue of Zucker rat sub-chronic fa/fa prediabetic model at 10 mg/kg, po qd for 15 days by microarray analysis relative to control; assay type: functional
[12] = system: Rattus norvegicus; assay: Effect on NDUFA6 gene expression in epididymal white adipose tissue of Zucker rat sub-chronic fa/fa prediabetic model at 10 mg/kg, po qd for 15 days by microarray analysis relative to control; assay type: functional
[13] = system: Rattus norvegicus; assay: Effect on Ckmt1 gene expression in epididymal white adipose tissue of Zucker rat sub-chronic fa/fa prediabetic model at 10 mg/kg, po qd for 15 days by microarray analysis relative to control; assay type: functional
[14] = system: Rattus norvegicus; assay: Effect on CPT1A gene expression in epididymal white adipose tissue of Zucker rat sub-chronic fa/fa prediabetic model at 10 mg/kg, po qd for 15 days by microarray analysis relative to control; assay type: functional
[15] = system: Rattus norvegicus; assay: Antidiabetic activity in […] chronic ob/ob model assessed as increase in plasma adiponectin level administered po qd for 31 days measured on day 32 by ELISA; assay type: functional, organism-based
[16] = system: Rattus norvegicus; assay: Toxicity in […] model assessed as liver weight at 50 mg/kg, po qd for 31 days measured on day 32 (reference value: 2.77 +/- 0.16 g); assay type: organism-based; conditions: in vivo, 744 h
[17] = system: Rattus norvegicus; assay: Effect on SUCLG1 gene expression in epididymal white adipose tissue of Zucker rat sub-chronic fa/fa prediabetic model at 10 mg/kg, po qd for 15 days by microarray analysis relative to control; assay type: functional
[18] = system: Rattus norvegicus; assay type: functional, Zucker
[19] = molecular target: T1, Steroid hormone receptor ERR1 (Homo sapiens, UniProt P11474); assay: Antagonist activity at His6-tagged ERRalpha LBD (unknown origin) assessed as inhibition of GST-tagged SRC-2 co-activator peptide recruitment after 18 hrs by TR-FRET assay
T1 sequence (P11474 whole entry): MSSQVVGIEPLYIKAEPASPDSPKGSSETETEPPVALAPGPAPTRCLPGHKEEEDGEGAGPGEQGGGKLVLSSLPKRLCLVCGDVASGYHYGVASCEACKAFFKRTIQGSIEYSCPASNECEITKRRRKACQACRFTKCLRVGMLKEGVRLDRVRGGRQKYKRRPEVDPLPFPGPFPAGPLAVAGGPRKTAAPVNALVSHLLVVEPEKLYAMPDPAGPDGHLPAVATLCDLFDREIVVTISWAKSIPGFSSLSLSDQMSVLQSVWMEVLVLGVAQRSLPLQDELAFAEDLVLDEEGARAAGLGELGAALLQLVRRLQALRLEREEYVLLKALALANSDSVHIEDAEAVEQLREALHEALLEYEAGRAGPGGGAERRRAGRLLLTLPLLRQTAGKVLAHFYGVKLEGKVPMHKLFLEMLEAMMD

[20] = system: Rattus norvegicus; assay: Effect on PLCB1 gene expression in epididymal white adipose tissue of Zucker rat sub-chronic fa/fa prediabetic model at 10 mg/kg, po qd for 15 days by microarray analysis relative to control; assay type: functional
[21] = system: Rattus norvegicus; assay: Antidiabetic activity in Zucker rat sub-chronic fa/fa prediabetic model assessed as reduction in blood glucose AUC (0 to 120 min) at 10 mg/kg, po qd for 31 days measured on day 29 post dose by OGTT relative to control; assay type: functional; set-up: scale not given: the % may be the effect or the level left
[22] = system: Rattus norvegicus; assay: Toxicity in Zucker rat sub-chronic fa/fa prediabetic model assessed as insulin level per gram pancreas at 10 mg/kg, po qd for 31 days measured on day 32 (reference value: 55.2 +/- 5.5 ug); assay type: organism-based; conditions: in vivo, 744 h
[23] = system: Rattus norvegicus; assay: Toxicity in Zucker rat sub-chronic fa/fa prediabetic model assessed as insulin level per gram pancreas at 3 mg/kg, po qd for 31 days measured on day 32 (reference value: 55.2 +/- 5.5 ug); assay type: organism-based; conditions: in vivo, 744 h
[24] = system: Rattus norvegicus; assay: Toxicity in […] chronic ob/ob model assessed as brown adipose tissue weight at 10 mg/kg, po qd for 31 days measured on day 32 (reference value: 0.59 +/- 0.05 g); assay type: organism-based; conditions: in vivo, 744 h
[25] = system: Rattus norvegicus; assay: Toxicity in Zucker rat sub-chronic fa/fa prediabetic model assessed as serum cholesterol level at 3 mg/kg, po qd for 31 days measured on day 32 (reference value: 295 +/- 91 mg/dl); assay type: organism-based; conditions: in vivo, 744 h
[26] = system: Rattus norvegicus; assay: Toxicity in Zucker rat sub-chronic fa/fa prediabetic model assessed as change in body weight at 50 mg/kg, po qd for 29 days measured on day 1 to 29 during compound dosing (reference value: 140 +/- 7 g); assay type: organism-based; conditions: in vivo, 696 h
[27] = system: Rattus norvegicus; assay: Effect on ECI2 gene expression in epididymal white adipose tissue of Zucker rat sub-chronic fa/fa prediabetic model at 10 mg/kg, po qd for 15 days by microarray analysis relative to control; assay type: functional
[28] = molecular target: Oxysterols receptor LXR-beta (Homo sapiens, UniProt P55055); assay: Antagonist activity at recombinant GST-tagged human LXRbeta LBD assessed as inhibition of TO901317-induced fluorescein-labeled coactivator peptide recruitment preincubated with enzyme followed by coactivator addition by LanthaScreen TR-FRET assay
Sequence of Oxysterols receptor LXR-beta (P55055 whole entry, the tested form may be a part): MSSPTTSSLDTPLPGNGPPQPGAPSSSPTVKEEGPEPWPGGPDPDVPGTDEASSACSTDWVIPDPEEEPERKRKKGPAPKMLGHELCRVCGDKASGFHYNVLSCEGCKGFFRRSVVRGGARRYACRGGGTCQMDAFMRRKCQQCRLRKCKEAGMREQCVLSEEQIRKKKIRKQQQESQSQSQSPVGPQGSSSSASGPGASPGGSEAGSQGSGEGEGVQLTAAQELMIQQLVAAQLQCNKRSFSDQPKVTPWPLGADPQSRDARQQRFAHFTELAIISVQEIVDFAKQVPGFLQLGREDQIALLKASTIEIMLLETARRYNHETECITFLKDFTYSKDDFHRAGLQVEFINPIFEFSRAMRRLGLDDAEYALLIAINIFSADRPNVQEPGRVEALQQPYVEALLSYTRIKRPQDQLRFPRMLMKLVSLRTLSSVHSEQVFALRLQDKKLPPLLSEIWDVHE

Sequence of Retinoic acid receptor RXR-beta (P28702 whole entry, the tested form may be a part): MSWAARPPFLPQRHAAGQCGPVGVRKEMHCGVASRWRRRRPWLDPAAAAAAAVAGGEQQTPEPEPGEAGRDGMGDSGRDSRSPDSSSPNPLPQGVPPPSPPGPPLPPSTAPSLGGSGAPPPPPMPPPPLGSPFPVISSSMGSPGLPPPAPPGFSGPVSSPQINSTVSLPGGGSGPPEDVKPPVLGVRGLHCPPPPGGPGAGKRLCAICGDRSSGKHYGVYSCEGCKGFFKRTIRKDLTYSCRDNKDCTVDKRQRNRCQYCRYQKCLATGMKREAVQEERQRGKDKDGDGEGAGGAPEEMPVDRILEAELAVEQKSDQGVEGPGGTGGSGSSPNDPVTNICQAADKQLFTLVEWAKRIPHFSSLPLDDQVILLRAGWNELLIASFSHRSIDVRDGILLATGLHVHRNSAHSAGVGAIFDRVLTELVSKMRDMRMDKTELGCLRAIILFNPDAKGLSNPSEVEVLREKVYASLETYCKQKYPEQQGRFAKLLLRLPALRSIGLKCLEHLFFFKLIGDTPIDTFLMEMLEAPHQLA

For `CN1CC[C@@H](N2C(=O)S/C(=C\c3ccc4c(cnn4Cc4ccc(Cl)cc4C(F)(F)F)c3)C2=O)[C@H](F)C1`, the Activity [1] was 197 mg/dL, the “fold change (FC)” value [2] was 1.257 and the AUC at 24 h [3] was 85900 ng·h/mL. For the same compound, the Activity [4] was 0.44 mg/dL, the Activity [5] was 3.44 g and the IC50 [6] was over 10 µM. For the same compound, the “fold change (FC)” value [7] was 2.122, the “fold change (FC)” value [8] was 1.4 and the clearance [9] was 23 mL/min/kg. For the same compound, the Activity [10] was 3.7 g, the “fold change (FC)” value [11] was 1.239 and the “fold change (FC)” value [12] was 1.277. The “fold change (FC)” value [13] was -1.374, the “fold change (FC)” value [14] was -1.277 and the Activity [15] was “Dose-dependent effect”. The Activity [16] was 2.61 g, the “fold change (FC)” value [17] was 1.401 and the Activity [18] was 14.9%. The IC50 [19] was 0.023 µM, the “fold change (FC)” value [20] was 1.58 and the Activity [21] was 55%. For the same compound, the Activity [22] was 80.1 µg, the Activity [23] was 90.7 µg and the Activity [24] was 0.99 g. For the same compound, the Activity [25] was 179 mg/dL, the Activity [26] was 157 g and the “fold change (FC)” value [27] was 1.453. It also gave an IC50 [28] of over 10 µM.
